In patent publication US12637413B2, “Fatty acid amide hydrolase (FAAH) cleavable prodrugs of thyromimetics and combination with peripherally restricted FAAH inhibitors” (Autobahn Therapeutics, Inc., priority 2021, dated 2026) one finds ke data, which are given here for 36 compounds.

This assay concerns the target T1, recombinant human FAAH (rhFAAH) (Homo sapiens, UniProt O00519).
T1 construct: purchased Cayman Chemical (Ann Arbor, MI, USA)
T1 sequence (O00519 1-579): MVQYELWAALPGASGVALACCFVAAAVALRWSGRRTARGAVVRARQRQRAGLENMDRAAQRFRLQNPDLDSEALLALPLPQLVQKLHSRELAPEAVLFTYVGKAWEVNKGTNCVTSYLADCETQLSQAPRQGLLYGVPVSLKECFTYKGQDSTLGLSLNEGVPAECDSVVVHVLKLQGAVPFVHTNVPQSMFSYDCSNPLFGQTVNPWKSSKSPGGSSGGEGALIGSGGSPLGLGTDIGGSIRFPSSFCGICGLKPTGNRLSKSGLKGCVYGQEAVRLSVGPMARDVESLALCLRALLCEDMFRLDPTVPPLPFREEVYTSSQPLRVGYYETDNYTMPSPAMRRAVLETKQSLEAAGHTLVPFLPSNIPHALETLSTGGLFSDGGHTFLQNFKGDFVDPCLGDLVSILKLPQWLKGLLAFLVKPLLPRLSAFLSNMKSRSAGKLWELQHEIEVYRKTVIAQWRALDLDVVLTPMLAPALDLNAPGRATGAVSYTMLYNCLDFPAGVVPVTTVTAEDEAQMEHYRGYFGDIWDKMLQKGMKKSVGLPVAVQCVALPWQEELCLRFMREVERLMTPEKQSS
Kind of assay: FAAH substrate evaluation (acid metabolite formation). The format is biochemical. To be noted: observed rate constant for acid metabolite formation; 0.5 ng/μL rhFAAH, 1 μM test compound, room temperature, 0-60 minutes. Here is the method:
Purified recombinant human FAAH (rhFAAH) was purchased from Cayman Chemical (Ann Arbor, MI, USA). The total volume for each incubation was 400 μL containing a final 0.5 ng/μL rhFAAH, 1 μM test compound, 1.25% ethanol or 1 μM PF-3845 (FAAH inhibitor), and 0.1% bovine serum albumin in Tris-EDTA buffer at pH 8.0). The positive control was LL-341001. The incubation was conducted at the room temperature. At 0, 5, 15, 30 and 60 minutes, an aliquot of 30 μL reaction mixtures was removed and mixed with 300 μL acetonitrile containing 5 ng/mL terfenadine and 10 ng/mL tolbutamide as internal standards to quench the reaction. The resulting mixture was centrifuged at 4000 rpm, 4° C. for 15 minutes, and 100 μL supernatant was ready for LC-MS/MS analysis to measure the formation of acid metabolite.
Acquity Ultra Performance LC system from Waters was used for sample analysis. The chromatography was performed on a reverse phase Kinetex 2.6 μm C18 column, 2.1×30 mm, 100 Å. The mobile phase A comprised of 0.1% formic acid in water and mobile phase B comprised of 0.1% formic acid in acetonitrile with a 2-min run time at the flow rate of 0.8 mL/min for the acid metabolite from positive control or a 1.5 min run time at the flow rate of 0.9 mL/min for the acid metabolite of test compounds. The mass spectrometer (API-5500 and API Q Trap 4000 Applied Biosystems/MDS SCIEX Instruments, Framingham, MA, USA) was operated under ESI positive or negative ion MRM mode.
The formation of acid metabolite was monitored and quantified using one calibration point of 1 μM. The observed rate constant (ke) for the acid metabolite formation was calculated by plotting the metabolite concentration versus time of incubation with the slope being ke and is shown in Table 1.
On to `CC(C)c1c(O)ccc(Cc2c(Cl)cc(OCC(=O)N(C)C)c(F)c2Cl)c1F` [Compound 40], for which the ke entry was “B (ke is less than 0.1 and more than 0)”.

On to `COc1ccc(NC(=O)COc2cc(Cl)c(Cc3ccc(O)c(C(C)C)c3)c(Cl)c2)cn1` [Compound 101, 2-(3,5-dichloro-4-{[4-hydroxy-3-(propan-2-yl)phenyl]methyl}phenoxy)-N-(6-methoxypyridin-3-yl)acetamide], for which the ke result was “A (ke is more than or equal to 0.1)”.

For `CCNC(=O)COc1cc(Cl)c(Cc2ccc(O)c(C(C)C)c2)c(Cl)c1` [Compound 2], the ke entry was “A (ke is more than or equal to 0.1)”.

As for `CC(C)c1cc(Cc2c(Cl)cc(OCC(=O)Nc3cccnn3)cc2Cl)ccc1O` [Compound 104, 2-(3,5-dichloro-4-(4-hydroxy-3-isopropylbenzyl)phenoxy)-N-(pyridazin-3-yl)acetamide], the ke entry is reported as “A (ke is more than or equal to 0.1)”.

Turning to `CNC(=O)COc1cc(Cl)c(Cc2ccc(O)c(C(C)C)c2F)c(Cl)c1F` [Compound 39], the ke entry is “B (ke is less than 0.1 and more than 0)”.

With `CC(C)c1cc(Cc2c(Cl)cc(OCC(=O)Nc3cccnc3)cc2Cl)ccc1O` [Compound 114, 2-(3,5-dichloro-4-(4-hydroxy-3-isopropylbenzyl)phenoxy)-N-(pyridin-3-yl)acetamide], the ke entry was “A (ke is more than or equal to 0.1)”.

For `CON(C)C(=O)COc1cc(Cl)c(Cc2ccc(O)c(C(C)C)c2F)c(Cl)c1` [Compound 44], the ke entry was “A (ke is more than or equal to 0.1)”.

Turning to `CC(C)c1cc(Cc2c(Cl)cc(OCC(=O)Nc3cccc(F)c3)cc2Cl)ccc1O` [Compound 25], the ke result is given as “A (ke is more than or equal to 0.1)”.

Consider `CC(C)c1cc(Cc2c(Cl)cc(OCC(=O)N(C)C)c(F)c2Cl)ccc1O` [Compound 38], for which the ke entry was “B (ke is less than 0.1 and more than 0)”.

As for `CC(C)c1cc(Cc2c(Cl)cc(OCC(=O)NCCc3ccccc3)cc2Cl)ccc1O` [Compound 23], the ke result is “B (ke is less than 0.1 and more than 0)”.

Turning to `CC(C)c1cc(Cc2c(Cl)cc(OCC(=O)N(C)N(C)C)cc2Cl)ccc1O` [Compound 108, 2-(3,5-dichloro-4-(4-hydroxy-3-isopropylbenzyl)phenoxy)-N,N′,N′-trimethylacetohydrazide], the ke result was “B (ke is less than 0.1 and more than 0)”.

Turning to `CNC(=O)COc1cc(Cl)c(Cc2ccc(O)c(C(C)C)c2)c(Cl)c1F` [Compound 37], the ke result was “B (ke is less than 0.1 and more than 0)”.

On to `COc1ccc(NC(=O)COc2cc(Cl)c(Cc3ccc(O)c(C(C)C)c3)c(Cl)c2)nn1` [Compound 113, 2-(3,5-dichloro-4-(4-hydroxy-3-isopropylbenzyl)phenoxy)-N-(6-methoxypyridazin-3-yl)acetamide], for which the ke result was “A (ke is more than or equal to 0.1)”.

Consider `CC(C)c1cc(Cc2c(Cl)cc(OCC(=O)N(C)CCO)cc2Cl)ccc1O` [Compound 123, 2-(3,5-dichloro-4-(4-hydroxy-3-isopropylbenzyl)phenoxy)-N-(2-hydroxyethyl)-N-methylacetamide], for which the ke result is “B (ke is less than 0.1 and more than 0)”.

As to `CC(C)c1c(O)ccc(Cc2c(Cl)cc(OCC(=O)NN(C)C)cc2Cl)c1F` [Compound 45], the ke result is reported as “A (ke is more than or equal to 0.1)”.

In the case of `CC(C)c1cc(Cc2c(Cl)cc(OCC(=O)NC[C@H](C)O)cc2Cl)ccc1O` [Compound 8], the ke result is “B (ke is less than 0.1 and more than 0)”.

For the compound `CC(C)c1c(O)ccc(Cc2c(Cl)cc(OCC(N)=O)cc2Cl)c1F` [Compound 35], the ke entry is “A (ke is more than or equal to 0.1)”.

On to `CC(C)c1cc(Cc2c(Cl)cc(OCC(=O)NC(CO)CO)cc2Cl)ccc1O` [Compound 11], for which the ke entry is “B (ke is less than 0.1 and more than 0)”.

As to `CC(C)c1cc(Cc2c(Cl)cc(OCC(=O)N3CCC3)cc2Cl)ccc1O` [Compound 118, 1-(azetidin-1-yl)-2-(3,5-dichloro-4-(4-hydroxy-3-isopropylbenzyl)phenoxy)ethan-1-one], the ke result is “B (ke is less than 0.1 and more than 0)”.

For `CC(C)CN(C)C(=O)COc1cc(Cl)c(Cc2ccc(O)c(C(C)C)c2)c(Cl)c1` [Compound 120, 2-(3,5-dichloro-4-(4-hydroxy-3-isopropylbenzyl)phenoxy)-N-isobutyl-N-methylacetamide], the ke result is “C (ke is 0)”.

For `CONC(=O)COc1cc(Cl)c(Cc2ccc(O)c(C(C)C)c2)c(Cl)c1` [Compound 28], the ke entry is reported as “A (ke is more than or equal to 0.1)”.

Take `CC(C)c1c(O)ccc(Cc2c(Cl)cc(OCC(=O)NCCF)cc2Cl)c1F` [Compound 36]: the ke entry was “A (ke is more than or equal to 0.1)”.

In the case of `CC(C)c1cc(Cc2c(Cl)cc(OCC(=O)NN)cc2Cl)ccc1O` [Compound 27], the ke entry is on record as “A (ke is more than or equal to 0.1)”.

As for `CC(C)c1cc(Cc2c(Cl)cc(OCC(=O)N(C)CCF)cc2Cl)ccc1O` [Compound 125, 2-(3,5-dichloro-4-(4-hydroxy-3-isopropylbenzyl)phenoxy)-N-(2-fluoroethyl)-N-methylacetamide], the ke entry was “B (ke is less than 0.1 and more than 0)”.

For `CC(C)c1cc(Cc2c(Cl)cc(OCC(=O)Nc3ccccc3O)cc2Cl)ccc1O` [Compound 20], the ke entry is recorded as “A (ke is more than or equal to 0.1)”.

As to `CC(C)c1cc(Cc2c(Cl)cc(OCC(=O)NCCS(C)(=O)=O)cc2Cl)ccc1O` [Compound 30], the ke entry is given as “A (ke is more than or equal to 0.1)”.

For the compound `CC(C)c1cc(Cc2c(Cl)cc(OCC(=O)N(C)CC(F)F)cc2Cl)ccc1O` [Compound 132, 2-(3,5-dichloro-4-(4-hydroxy-3-isopropylbenzyl)phenoxy)-N-(2,2-difluoroethyl)-N-methylacetamide], the ke result was “B (ke is less than 0.1 and more than 0)”.

On to `CC(C)c1cc(Cc2c(Cl)cc(OCC(=O)N(C)C(C)C)cc2Cl)ccc1O` [Compound 122, 2-(3,5-dichloro-4-(4-hydroxy-3-isopropylbenzyl)phenoxy)-N-isopropyl-N-methylacetamide], for which the ke result is “B (ke is less than 0.1 and more than 0)”.

In the case of `CC(C)c1cc(Cc2c(Cl)cc(OCC(=O)NC3CCCCC3)cc2Cl)ccc1O` [Compound 105, N-cyclohexyl-2-(3,5-dichloro-4-(4-hydroxy-3-isopropylbenzyl)phenoxy)acetamide], the ke entry is “C (ke is 0)”.

As for `CC(C)c1cc(Cc2c(Cl)cc(OCC(=O)NCCF)cc2Cl)ccc1O` [Compound 14], the ke entry is listed as “A (ke is more than or equal to 0.1)”.

For the compound `CNC(=O)COc1cc(F)c(Cc2ccc(O)c(C(C)C)c2)c(Cl)c1F` [Compound 42], the ke entry is “A (ke is more than or equal to 0.1)”.

Take `CC(C)c1cc(Cc2c(Cl)cc(OCC(=O)NCC#N)cc2Cl)ccc1O` [Compound 29]: the ke entry is reported as “A (ke is more than or equal to 0.1)”.

Turning to `CC(C)c1cc(Cc2c(Cl)cc(OCC(=O)N3CCOCC3)cc2Cl)ccc1O` [Compound 133, 2-(3,5-dichloro-4-(4-hydroxy-3-isopropylbenzyl)phenoxy)-1-morpholinoethan-1-one], the ke entry is on record as “A (ke is more than or equal to 0.1)”.

Regarding `CC(C)c1cc(Cc2c(Cl)cc(OCC(=O)N[C@@H](C)CO)cc2Cl)ccc1O` [Compound 10], the ke entry is listed as “A (ke is more than or equal to 0.1)”.

Turning to `CC(C)c1cc(Cc2c(Cl)cc(OCC(=O)NCCO)cc2Cl)ccc1O` [Compound 6], the ke entry is “A (ke is more than or equal to 0.1)”.

As for `CC(C)c1cc(Cc2c(Cl)cc(OCC(=O)NCC(F)(F)F)cc2Cl)ccc1O` [Compound 16], the ke result was “A (ke is more than or equal to 0.1)”.
